Measurements from paper PMC7821381, “Multi-Targeted Anticancer Activity of Imidazolate Phosphane Gold(I) Compounds by Inhibition of DHFR and TrxR in Breast Cancer Cells” (Frontiers in Chemistry, 2021).

Tests used:
EB-ct-DNA = test: Competitive binding fluorescence study with EtBr (EB-ct-DNA); parameters: species or system calf; details: competitive EtBr displacement, fluorescence quenching, pH 7.4
Excerpt: EtBr weakly emits fluorescence in aqueous solutions (Pasternack et al., [1983]), however in presence of ct-DNA strongly emits at ~600 nm due to strong intercalation between adjacent DNA base pairs. Ethidium bromide (EB) can be employed as a probe for the spectroscopic study of the interaction between DNA and intercalating species because of a 24-fold decrease in its fluorescence when displaced from an intercalation site by the addition of a competitive binding molecule probably due to decreasing in the number of binding sites accessible to EtBr (Tong et al., [2012]). […] Fluorescence quenching spectra were recorded using a Hitachi 4,500 spectrofluorometer with an excitation wavelength of 490 nm and emission spectrum 500–700 nm. The fluorescence spectra were recorded and the fluorescence value of the decrease in emission spectra was corrected according to the relationship:
where Fc and Fm are the corrected and measured fluorescence, respectively. A1 and A2 are the absorbance of tested compounds at the exciting and emission wavelengths. For fluorescence quenching experiments, Stern-Volmer's equation was used (Equation 3): […]

[1] = target: T1, dihydrofolate reductase (DHFR) (Homo sapiens, UniProt P00374); test: DHFR specific enzymatic activity in lysates of treated MDA-MB231 cells; format: cell-based; details: 8 μM (maximum inhibition)
T1 construct: Cell lysates were collected using Cell Culture Lysis Reagent; endogenous in cells; host or cells: MDA-MB231 and SKBR3 (human breast cancer cells)
T1 sequence (P00374 1-187): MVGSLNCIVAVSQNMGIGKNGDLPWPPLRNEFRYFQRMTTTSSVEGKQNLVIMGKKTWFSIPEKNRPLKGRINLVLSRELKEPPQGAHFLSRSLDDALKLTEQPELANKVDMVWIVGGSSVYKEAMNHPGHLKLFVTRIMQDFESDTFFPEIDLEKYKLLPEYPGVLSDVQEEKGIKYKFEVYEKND
Protocol: (§1) SKBR3, MDA-MB-231 and A17 cells were plated onto 100 mm cell culture dishes (2 × 10^6 cells/ dish). The day after, cells were treated with vehicle alone (DMSO) as control or increasing concentrations of compound 5 and compound 6 in DMEM supplemented with 2% FBS (Invitrogen, Carlsbad, CA) for 4 h or 12 h. Representative pictures of cells treated with compound 5 or 6 at the indicated concentration for 4 or 12 h just before to take cell lysates for the enzymatic tests are reported as supplemental files. Cell lysates were collected using Cell Culture Lysis Reagent (Promega, Madison, WI) supplemented with BSA (1%) and protease inhibitors. DHFR activity was assessed by spectrophotometric assay as reported elsewhere (Wang et al., [2020]) in which the reaction rate was followed by recording the decreasing absorbance at 340 nm due to oxidation of NADPH to NADP^+, using a Shimadzu UV-2450 spectrophotometer. When necessary, because of low protein content in the lysates, the DHFR enzymatic activity was measured by a discontinuous direct HPLC assay using an Agilent 1100 system. HPLC-DAD (Agilent 1100) was used to detect and quantify the presence of NADP^+, as one of the products of DHFR catalyzed reaction, in cell lysates. Fifty microliter of the cell lysate were incubated at 37°C in a reaction mixture containing 760 μl of buffer (0.05 M Hepes pH 7.3), 20 μl of NADPH 4 mM, and 20 μl of dihydrofolate (H2F) 4 mM. The samples for HPLC analysis were prepared as follows: 50 μl aliquots of each mixture were stopped at different times (0, 5, 10, 20, 30, and 60 min) by adding 25 μl of HClO4 1.2 M; after 10 min on ice and centrifugation for 5 min at 12,000 g, 60 μl of each supernatant were neutralized by adding 17.5 μl of K2CO3 0.79 M, kept on ice and centrifuged again. Fifty microliter of the supernatant obtained were directly injected into the reversed phase column for separations of reagents and products of the enzyme catalyzed reaction. The column used is a Supelcosil LC RP 18 (4.6 × 250 mm) with pre-column SupelGuard. The HPLC settings are the same reported in Wang et al. ([2020]). The amounts of product (NADP^+) were determined from the peak areas of the HPLC-separated compounds with reference to appropriate standards. One enzyme unit is defined as the amount of enzyme which catalyzes the reduction of 1 μmol of dihydrofolate, per minute, at 37°C. Enzyme activities were normalized by the protein content, determined by the Bradford assay (Bradford, [1976]).

[2] = tested on: thioredoxin reductase (TrxR); details: A17, 12 h treatment, 6 μM (maximum inhibition); control 4.95 ± 0.08
Protocol: The assay was performed as previously reported (Galassi et al., [2012]) in 0.2 M Na, K-phosphate buffer (pH 7.4) containing 2 mM EDTA. The assay contained 0.12 mM NADPH and different amounts of cell lysate. The reaction was initiated by the addition of 3 mM 5,5′-dithiobis (2-nitrobenzoic acid) (DTNB) and the increase of absorbance was monitored at 412 nm over 5 min at 25°C.
Fig. 3S. Effects of gold(I) compounds 5 and 6 on redox enzyme thioredoxine reductase in A17 cancer cells. Cells were incubated for 12 hours with different amount of tested compounds 5 and 6. After incubation, cells were washed twice with PBS and lysed. TrxR activity was tested by measuring NADPH-dependent reduction of DTNB (Galassi et al, 2012).

[3] = target: T2, dihydrofolate reductase (DHFR) (Mus musculus, UniProt P00375); test: DHFR specific enzymatic activity in lysates of treated A17 cells; format: cell-based, murine; details: 6 μM (maximum inhibition)
T2 construct: Cell lysates were collected using Cell Culture Lysis Reagent; endogenous in cells; host or cells: A17 (murine basal-like breast cancer cells)
T2 sequence (P00375 1-187): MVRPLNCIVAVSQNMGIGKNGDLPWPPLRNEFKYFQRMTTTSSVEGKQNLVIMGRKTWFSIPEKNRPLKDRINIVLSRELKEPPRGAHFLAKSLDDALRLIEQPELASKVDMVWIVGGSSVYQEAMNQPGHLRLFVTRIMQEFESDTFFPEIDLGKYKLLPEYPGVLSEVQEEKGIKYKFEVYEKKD
Protocol: as §1

[4] = MDA-MB231, 4 h treatment, control 5.38 ± 0.38
[5] = MDA-MB231, 12 h treatment, control 0.64 ± 0.02
[6] = A17, 4 h treatment, control 1.17 ± 0.06
[7] = A17, 12 h treatment, control 4.77 ± 0.78

| Substance | EB-ct-DNA Ksv (EB-ct-DNA) | Specific enzymatic activity of DHFR [1, 4] [mU/mg] | Specific enzymatic activity of DHFR [1, 5] [mU/mg] | Specific enzymatic activity of TrxR [2] | Specific enzymatic activity of DHFR [3, 6] [mU/mg] | Specific enzymatic activity of DHFR [3, 7] [mU/mg] |
| --- | --- | --- | --- | --- | --- | --- |
| 4,5-dichloro-imidazolate-1yl-gold(I)-(triphenylphosphane) [Compound 6] | 4.22 ± 0.34 10^3 M^−1 | 1.75 ± 0.34 | 0.55 ± 0.002 | 4.21 ± 0.09 (6 μM) mU/mg | 1.03 ± 0.03 | 2.01 ± 0.14 |
| 4,5-dicyano-imidazolate-1yl-gold(I)-(triphenylphosphane) [Compound 5] | 1.55 ± 0.34 10^3 M^−1 | 2.37 ±0.39 | 0.42 ± 0.01 | 1.84 ± 0.06 (6 μM) mU/mg | 1.07 ± 0.02 | 1.66 ± 0.07 |
